According to US12459951B2, “Compounds that interact with RAS superfamily proteins for treatment of cancers, inflammatory diseases, rasopathies, and fibrotic disease” (SHY Therapeutics, LLC, priority 2022, dated 2025):
Like-named read-outs stand apart in the source and are kept apart here.

What was measured:
IL6 = assay: IL-6 Quantification Assay (ELISA), LPS-stimulated RAW 264.7; type: cell-based; parameters: inhibition: dose or concentration left out as unconfirmed; conditions: Mus musculus, RAW264.7; read-out: IL-6: % inh.
[1] = system: MiaPaca-2 (expressing KRAS G12C mutant); assay: Proliferation Assay (Cell Viability Assay); type: cell-based; conditions: Homo sapiens, MIA PaCa-2
Procedure, shortened: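 After 2–4 days' exposure at 37 °C, 5% CO2 to a single 10 μM final concentration or a dilution series (IC50), percent proliferation inhibition was derived from CellTiter 96 Aqueous One viability readings. The medium contained 0.3% DMSO and 10% FBS. KRAS G12C MiaPaca-2 cells were plated at 2000–5000/well the day before.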

KRas wild type = assay: Ras GTP Binding Domain Inhibition Assay (Ras Superfamily Assay); conditions: at 20 μM; for KRas wild type + SOS: % inh.: with SOS; for KRas wild type: % inh.: without SOS
Procedure, shortened: (§1)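 Ni-plate capture of His-tagged protein (10-30 μg/mL, o/n 4° C); cpd 20 μM or dilution series, 1% DMSO, 3 h RT ± Sos 556-1049 last h; 100 nM Cy-labelled GTP 45 min RT; 3× wash; fluorescence read.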

KRas G12D mutant = assay: as above; conditions: at 20 μM; for KRas G12D mutant + SOS: % inh.: with SOS; for KRas G12D mutant: % inh.: without SOS
Procedure, shortened: as §1

[2] = read-out: Proliferation in MiaPaca-2: IC50

Row | Compound | inhibition (IL6) [%] | IC50 [1, 2] [nM] | KRas wild type + SOS: % inh. (KRas wild type) | KRas wild type: % inh. (KRas wild type) | KRas G12D mutant + SOS: % inh. (KRas G12D mutant) | KRas G12D mutant: % inh. (KRas G12D mutant) | IC50 ([1]; Proliferation assay, MiaPaca-2, read-out: MiaPaca-2 IC50 (nM) Pancreatic) [nM]
1 | CO[C@H]1C[C@H](Nc2nc(-c3nccn3C)nn3cc(-c4ccc(CCN)cc4)c(-c4ccccc4)c23)C1.Cl [Compound 207, 6-(4-(2-Aminoethyl)phenyl)-N-((1r,3r)-3-methoxycyclobutyl)-2-(1-methyl-1H-imidazol-2-yl)-5-phenylpyrrolo[2,1-f][1,2,4]triazin-4-amine hydrochloride salt] | 75 to 100 | > 1000 | B (B = 26-49% inhibition) | B (B = 26-49% inhibition) | A (A = 1-25% inhibition) | B (B = 26-49% inhibition) | –
2 | CO[C@H]1C[C@H](Nc2nc(-c3nccn3C)nn3cc(-c4ccc(OCCN)cc4)c(-c4ccccc4)c23)C1.Cl [Compound 208, 6-(4-(2-Aminoethoxy)phenyl)-N-((1r,3r)-3-methoxycyclobutyl)-2-(1-methyl-1H-imidazol-2-yl)-5-phenylpyrrolo[2,1-f][1,2,4]triazin-4-amine hydrochloride salt] | 75 to 100 | > 1000 | C (C = 50-75% inhibition) | B (B = 26-49% inhibition) | C (C = 50-75% inhibition) | B (B = 26-49% inhibition) | –
3 | COc1cccc(-c2cn3nc(-c4nccn4C)nc(N[C@H]4C[C@H](OC)C4)c3c2-c2ccccc2)c1C [Compound 209, 6-(3-methoxy-2-methylphenyl)-N-((1r,3r)-3-methoxycyclobutyl)-2-(1-methyl-1H-imidazol-2-yl)-5-phenylpyrrolo[2,1-f][1,2,4]triazin-4-amine] | 75 to 100 | 150 to 500 | 0 (0 = 0% inhibition) | A (A = 1-25% inhibition) | A (A = 1-25% inhibition) | A (A = 1-25% inhibition) | –
4 | CO[C@H]1C[C@H](Nc2nc(-c3nccn3C)nn3cc(-c4cccc5c4CCO5)c(-c4ccccc4)c23)C1 [Compound 210, 6-(2,3-Dihydrobenzofuran-4-yl)-N-((1r,3r)-3-methoxycyclobutyl)-2-(1-methyl-1H-imidazol-2-yl)-5-phenylpyrrolo[2,1-f][1,2,4]triazin-4-amine] | 75 to 100 | 510 to 1000 | 0 (0 = 0% inhibition) | A (A = 1-25% inhibition) | A (A = 1-25% inhibition) | A (A = 1-25% inhibition) | –
5 | Cc1c(-c2ccn(C)n2)cn2nc(-c3nccn3C)nc(N)c12 [Compound 211, 5-Methyl-2-(1-methyl-1H-imidazol-2-yl)-6-(1-methyl-1H-pyrazol-3-yl)pyrrolo[2,1-f][1,2,4]triazin-4-amine] | 50 to 74 | > 1000 | D (D = 76-100% inhibition) | C (C = 50-75% inhibition) | C (C = 50-75% inhibition) | C (C = 50-75% inhibition) | –
6 | Cn1ccnc1-c1nc(NS(C)(=O)=O)c2c(-c3ccccc3)c(-c3ccccc3)cn2n1 [Compound 212, N-(2-(1-Methyl-1H-imidazol-2-yl)-5,6-diphenylpyrrolo[2,1-f][1,2,4]triazin-4-yl) methanesulfonamide] | 1 to 24 | > 1000 | D (D = 76-100% inhibition) | C (C = 50-75% inhibition) | D (D = 76-100% inhibition) | C (C = 50-75% inhibition) | –
7 | COCCCS(=O)(=O)Nc1nc(-c2nccn2C)nn2cc(-c3ccccc3)c(-c3ccccc3)c12 [Compound 213, 3-Methoxy-N-(2-(1-methyl-1H-imidazol-2-yl)-5,6-diphenylpyrrolo[2,1-f][1,2,4]triazin-4-yl)propane-1-sulfonamide] | 25 to 49 | 510 to 1000 | D (D = 76-100% inhibition) | D (D = 76-100% inhibition) | D (D = 76-100% inhibition) | D (D = 76-100% inhibition) | –
8 | CO[C@H]1C[C@H](S(=O)(=O)Nc2nc(-c3nccn3C)nn3cc(-c4ccccc4)c(-c4ccccc4)c23)C1 [Compound 214, (1r,3r)-3-Methoxy-N-(2-(1-methyl-1H-imidazol-2-yl)-5,6-diphenylpyrrolo[2,1-f][1,2,4]triazin-4-yl)cyclobutane-1-sulfonamide] | 1 to 24 | > 1000 | C (C = 50-75% inhibition) | C (C = 50-75% inhibition) | C (C = 50-75% inhibition) | C (C = 50-75% inhibition) | –
9 | COc1ccnc(Nc2nc(-c3nccn3C)nn3cc(-c4ccn(CCNC(=O)CCCC[C@H]5SC[C@H]6NC(=O)N[C@H]65)n4)c(C)c23)c1 [Compound 215, N-(2-(3-(4-((4-methoxypyridin-2-yl)amino)-5-methyl-2-(1-methyl-1H-imidazol-2-yl)pyrrolo[2,1-f][1,2,4]triazin-6-yl)-1H-pyrazol-1-yl)ethyl)-5-((3aR,4R,6aS)-2-oxohexahydro-1H-thieno[3,4-d]imidazol-4-yl)pentanamide] | 1 to 24 | > 1000 | D (D = 76-100% inhibition) | D (D = 76-100% inhibition) | D (D = 76-100% inhibition) | D (D = 76-100% inhibition) | –
10 | COc1ccnc(Nc2nc(-c3nccn3CCNC(=O)CCCC[C@H]3SC[C@H]4NC(=O)N[C@H]43)nn3cc(-c4ccn(C)n4)c(C)c23)c1 [Compound 216, N-(2-(2-(4-((4-methoxypyridin-2-yl)amino)-5-methyl-6-(1-methyl-1H-pyrazol-3-yl)pyrrolo[2,1-f][1,2,4]triazin-2-yl)-1H-imidazol-1-yl)ethyl)-5-((3aR,4R,6aS)-2-oxohexahydro-1H-thieno[3,4-d]imidazol-4-yl)pentanamide] | 50 to 74 | > 1000 | D (D = 76-100% inhibition) | D (D = 76-100% inhibition) | D (D = 76-100% inhibition) | D (D = 76-100% inhibition) | –
11 | COc1ccnc(Nc2nc(-c3nccn3C)nn3cc(-c4c(F)cccc4OC)c(-c4ccccc4)c23)c1 [Compound 217, 6-(2-Fluoro-6-methoxyphenyl)-N-(4-methoxypyridin-2-yl)-2-(1-methyl-1H-imidazol-2-yl)-5-phenylpyrrolo[2,1-f][1,2,4]triazin-4-amine] | 75 to 100 | < 150 | B (B = 26-49% inhibition) | C (C = 50-75% inhibition) | B (B = 26-49% inhibition) | C (C = 50-75% inhibition) | –
12 | CO[C@H]1C[C@H](Nc2nc(-c3nccn3C)nn3cc(-c4cnccc4C)c(-c4ccccc4)c23)C1 [Compound 218, N-((1r,3r)-3-Methoxycyclobutyl)-2-(1-methyl-1H-imidazol-2-yl)-6-(4-methylpyridin-3-yl)-5-phenylpyrrolo[2,1-f][1,2,4]triazin-4-amine] | 1 to 24 | > 1000 | A (A = 1-25% inhibition) | A (A = 1-25% inhibition) | A (A = 1-25% inhibition) | A (A = 1-25% inhibition) | –
13 | COc1cccc(-c2cn3nc(-c4nccn4C)nc(N[C@H]4C[C@H](OC)C4)c3c2-c2ccccc2)c1OC [Compound 219, 6-(2,3-Dimethoxyphenyl)-N-((1r,3r)-3-methoxycyclobutyl)-2-(1-methyl-1H-imidazol-2-yl)-5-phenylpyrrolo[2,1-f][1,2,4]triazin-4-amine] | 75 to 100 | 510 to 1000 | 0 (0 = 0% inhibition) | A (A = 1-25% inhibition) | 0 (0 = 0% inhibition) | A (A = 1-25% inhibition) | –
14 | COc1ccnc(Oc2nc(-c3nccn3C)nn3cc(-c4ccn(C)n4)c(C)c23)c1 [Compound 220, 4-((4-Methoxypyridin-2-yl)oxy)-5-methyl-2-(1-methyl-1H-imidazol-2-yl)-6-(1-methyl-1H-pyrazol-3-yl)pyrrolo[2,1-f][1,2,4]triazine] | 25 to 49 | > 1000 | A (A = 1-25% inhibition) | B (B = 26-49% inhibition) | A (A = 1-25% inhibition) | B (B = 26-49% inhibition) | –
15 | Cc1c(-c2ccn(C)n2)cn2nc(-c3nccn3C)nc(Nc3cc4c(cn3)CCO4)c12 [Compound 221, N-(5-Methyl-2-(1-methyl-1H-imidazol-2-yl)-6-(1-methyl-1H-pyrazol-3-yl)pyrrolo[2,1-f][1,2,4]triazin-4-yl)-2,3-dihydrofuro[3,2-c]pyridin-6-amine] | 25 to 49 | < 150 | D (D = 76-100% inhibition) | D (D = 76-100% inhibition) | D (D = 76-100% inhibition) | D (D = 76-100% inhibition) | 1 to 10
